Assay results published in patent US8383626B2, “Nitric oxide donors for inducing neurogenesis” (Henry Ford Health System, priority 1999, dated 2013).
“And” between values parts separate entries of the source, which are not always exact repeats. Equal values may be shown once.

Legend:
Type in all cases: in vivo, rat
ischemic rats (stroke) = assay: Battery of neurological functional tests (NSS, Rotarod, footfault, adhesive removal, body weight) after stroke
Method: Administration of nitric oxide donor compound (DETA/NO) to normal and ischemic rats promotes neurogenesis in non-ischemic and ischemic brains. Since then, additional experiments have been performed to test the hypothesis that neurogenesis induced by DETA/NO promotes functional improvement after stroke; the data is provided herewith. Animals were administered (iv/ip) DETA/NO at one day (Group 1) or seven days (Group 2) after induction of stroke and followed by daily injection (ip) of DETA/NO over a period of seven days. Another NO donor compound (SNAP) was administered (iv) to ischemic rats at one day and two days after stroke (Group 3). Young (3 month old) rats were used in Groups 1 and 2. Middle aged rats (10 to 12 months old) were used in Group 3. A battery of neurological functional tests were measured from two days to forty-two days after stroke. These tests included 1) Neurological severity score (NSS) which measures motor, sensory and reflex functions and is similar to the contralateral neglect testing described in humans. The higher the score, the more severe the injury; 2) Rotarod test measures fore and hindlimb motor coordination and balance. Data are presented as percentage of baseline values; 3) Footfault test measures fore and hindlimb motor coordination. The higher the number, the more severe the injury; 4) Adhesive removal test measures sensorimotor impairments. Data are presented as time (seconds). The longer the time period, the more severe the injury; 5) Animal body weight.

[1] = system: newly formed cells (BrdU) in the subventricular zone and the dentate gyrus; assay: BrdU-positive newly formed cells in non-ischemic rats after single dose of DETANONO
Method: Treatment of non-ischemic brain with DETANONO: Rats not subjected to any surgical procedures were treated with DETANONO. The drug was administered as a single dose (iv 0.12 mg). BrdU was injected daily for 14 days after treatment. One population (Group 3) of rats was sacrificed on the last day of BrdU injection, Another population (Group 4) was sacrificed at four weeks after the last BrdU injection. Animals which were not administered DETA-NONO were given BrdU with the identical protocol as that for the DETA-NONO treated rats (Group 5).

[2] = system: newly formed cells (BrdU) in the subventricular zone and the dentate gyrus; assay: BrdU-positive newly formed cells in rats after embolic MCA occlusion treated with DETANONO
Method: A pharmacological method to promote neurogenesis in brain was developed. Male Wistar rats were subjected to middle cerebral artery (MCA) occlusion by means of intraarterial placement of a clot at the origin of the right MCA. Animals were administered (iv/ip) nitric oxide donor compounds (DETANONO) after induction of stroke, at 24 and 48 hours (Group 1), or at 24 hours followed by daily injection (ip) of NO donor compound (Group 2). BrdU, a thymidine analog which identifies the formation of new cells, was injected (ip) daily over a period of 14 days from the onset of ischemia. Identification of cell type was determined by labeling immunoreactivity of specific cell proteins. Thus, neurons were identified by expression of NeuN, MAP2 and the astrocytes formed by GFAP. Measurements of neurogenesis were performed within specific regions of brain, the subventricular zone and the dentate gyrus.

[3] = system: neuronal progenitor cells in the SVZ and in the dentate gyrus; assay: Proliferation of neuronal progenitor cells (BrdU immunoreactive cells) in ischemic adult rats (embolic MCA occlusion)
Method: Two experiments were performed. In the first experiment, the effects of NO on the proliferation of neuronal progenitor cells in the SVZ and the dentate gyrus of non ischemic adult rats were examined. In the second experiment, the effects of NO on the proliferation of neuronal progenitor cells in the SVZ and in the dentate gyrus of ischemic adult rats were examined.
Based on above data, a second experiment was performed to explore NO effects on focal embolic cerebral ischemic brain. All procedures were the same as in the first experiment except for the following procedures.
Male Wistar rats (n=30) weighing 300-350 g were subjected to middle cerebral artery (MCA) occlusion. The MCA was occluded by placement of an embolus at the origin of the MCA. Briefly, a single intact fibrin rich 24 hour old homologous clot (about 1 μl) was placed at the origin of the MCA via a fifteen mm length of modified PE-50 catheter. The experimental protocol consisted of four groups. In Group I (control group), rats were subjected to MCA occlusion and received four consecutive intravenous bolus doses of saline (0.52 ml each, every fifteen minutes) at 24 hours after ischemia. Group II (DETNO/NO precondition) rats received four consecutive intravenous bolus doses of DETANONO (0.1 mg/kg each, every fifteen minutes, and total dose 0.4 mg/kg) at 24 hours before embolization. Group III (DETANONO two set group), animals received consecutive intravenous bolus doses of DETANONO (0.1 mg/kg each, every fifteen minutes and total dose 0.4 mg/kg) at 24 and 48 hours after occlusion. Group IV (DETANONO seven set group), animals received four consecutive intravenous bolus doses of DETANONO (0.1 mg/kg each, every fifteen minutes and total dose 0.4 mg/kg) at 24 hours after embolization. Subsequently, rats were intraperitoneally injected with DETA/NO at 0.4 mg/kg every day for six consecutive days.

**Q.** How did the animal body weight (ischemic rats (stroke); Group 1: from one day after stroke, daily ip over seven days, vs control) turn out when `NCCN(CCN)/[N+]([O-])=N/O` [DETANONO, DETANONOate] was run?
**A.** The animal body weight was “Significant improvements”.

**Q.** What about the “motor and sensorimotor functions (Rotarod, Adhesive Removal, NSS tests)” value (ischemic rats (stroke); Group 1: from one day after stroke, daily ip over seven days, young rats, vs control) of the same molecule?
**A.** Its value is “Significant improvements”.

**Q.** And the “neurological function, Rotarod test” value (ischemic rats (stroke); Group 2: from seven days after stroke, at 28 and 42 days after stroke, only this test)?
**A.** The value was “significant improvement”.

**Q.** What about the “BrdU cells, subventricular zones (two values, sides not given)” value ([1]; Group 3: single dose iv 0.12 mg, sacrificed on last day of BrdU injection, Group 5 controls 1432.6±104.6, 1655.2±102.9, in cells/mm2) of the same molecule?
**A.** Its value is 2952±102.6 and 2725.3±115.5.

**Q.** What about the “BrdU cells, dentate gyrus (granule cell layer)” value ([1]; Group 3, Group 5 control 39.9±7.26) of the same molecule?
**A.** The value was 73.7±8.11.

**Q.** And the “BrdU cells, subventricular zone (two values, sides not given)” value ([1]; Group 4: single dose iv 0.12 mg, sacrificed four weeks after last BrdU injection, controls 214.6±67.9, 233.1±49.2, in cells/mm2)?
**A.** The value was 456.5±42.3 and 518.4±67.2.

**Q.** And the “BrdU cells in the granule cell layer” value ([2]; Group 1: treated at 24 and 48 hours after stroke, non-treated 37.3±3.6)?
**A.** Its value is 89.5±12.

**Q.** And the “numbers of BrdU positive cells, subventricular zone” value ([2]; Group 2: 24 h after stroke then daily ip, BrdU daily 14 days, untreated 1653±91.4)?
**A.** Its value is 2748±326.

**Q.** And the “numbers of BrdU positive cells, dentate gyrus granule cell layer” value ([2]; Group 2: 24 h after stroke then daily ip, untreated 37.3±3.6)?
**A.** The value was 135±18.9.

**Q.** And the “numbers of BrdU positive cells, dentate gyrus hilus” value ([2]; Group 2, untreated 10.1±2.4)?
**A.** Its value is 43.8±10.2.

**Q.** What about the “numbers of BrdU positive cells, dentate gyrus (second pair of values, area not named)” value ([2]; Group 2, untreated 34.9±2.8) of the same molecule?
**A.** The value was 53.7±6.3.

**Q.** What about the “newly formed cells within the dentate gyrus that were neurons” value ([2]; ischemic rats) of the same molecule?
**A.** The value was greater than 90%.

**Q.** What about the “newly formed cells within the hippocampus of neuronal phenotype” value ([2]; rats treated with DETANONO and subjected to strokes, estimated) of the same molecule?
**A.** Its value is “more than 90%”.

**Q.** And the “BrdU immunoreactive cells in the OB” value ([3]; ischemic rats, 14 days and 42 days after MCA occlusion)?
**A.** Its value is “Significant increases”.

**Q.** What about the “BrdU immunoreactive cells in dentate gyrus” value ([3]; ischemic rats, 14 days and 42 days, vs MCA occlusion group) of the same molecule?
**A.** Its value is “significant increases”.

**Q.** What about the “numbers of BrdU immunoreactive cells in the SVZ” value ([3]; preconditioned group (24 hours before embolization), contralateral SVZ at 14 days, both SVZs at 42 days, vs non-treated MCA occlusion) of the same molecule?
**A.** The value was “Significant (p<0.05) increases”.

**Q.** And the “BrdU immunoreactive cells in the SVZ” value ([3]; seven sets, contralateral and ipsilateral SVZ at 14 days and 42 days after MCA occlusion)?
**A.** Its value is “significant increases”.

**Q.** And the “numbers of BrdU immunoreactive cells in the SVZ” value ([3]; two dosage group (24 and 48 hours after occlusion), ipsilateral SVZ at 14 days, both SVZ at 42 days)?
**A.** Its value is “significant increase”.
